# In PubChem BioAssay AID256 (DTP/NCI, 2004):
# Several values for one entry are separate records, joined by “and”; a condition that tells them apart may be missing. Equal values may be shown once. Toxic doses and inconclusive results are not listed.
# Tested on: CD2F1 mice, L1210 leukemia ip, survival T/C
# Experiment: NCI In Vivo Anticancer Drug Screen. Data for tumor model L1210 Leukemia (intraperitoneal) in CD2F1 (CDF1) mice
# Conditions: higher = longer survival
# Summary of the method: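 Antitumor effect is scored in animals hosting a serially transplanted tumor. Values compare compound-dosed animals against vehicle-only controls as a simple quotient.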
structure (smiles),measurement,setting,value
CN(C)CCN1C(=O)c2cccc3cc(N)cc(c23)C1=O,T/C,"endpoint: mean survival time, dose: 1.0 mg/kg/injection, schedule: Q01DX009 (ip), vehicle: saline with Tween-80",92 % of control and 104 % of control
same,T/C,"endpoint: mean survival time, dose: 2.0 mg/kg/injection, schedule: Q01DX009 (ip), vehicle: saline with Tween-80",101 % of control and 102 % of control
same,T/C,"endpoint: mean survival time, dose: 4.0 mg/kg/injection, schedule: Q01DX009 (ip), vehicle: saline with Tween-80",107 % of control and 108 % of control
same,T/C,"endpoint: mean survival time, dose: 16.0 mg/kg/injection, schedule: Q01DX009 (ip), vehicle: saline with Tween-80",175 % of control and 197 % of control
same,T/C,"endpoint: mean survival time, dose: 32.0 mg/kg/injection, schedule: Q01DX009 (ip), vehicle: saline with Tween-80",89 % of control and 96 % of control
same,T/C,"endpoint: median survival time, dose: 1.0 mg/kg/injection, schedule: Q01DX009 (ip), vehicle: acid diluted with saline",99 % of control
same,T/C,"endpoint: median survival time, dose: 1.2 mg/kg/injection, schedule: Q03HX024 (ip), vehicle: water",113 % of control
same,T/C,"endpoint: median survival time, dose: 1.8 mg/kg/injection, schedule: Q03HX024 (ip), vehicle: water",117 % of control
same,T/C,"endpoint: median survival time, dose: 2.0 mg/kg/injection, schedule: Q01DX009 (ip), vehicle: acid diluted with saline",97 % of control and 107 % of control
same,T/C,"endpoint: median survival time, dose: 2.0 mg/kg/injection, schedule: Q01DX009 (ip), vehicle: saline with Tween-80",105 % of control
same,T/C,"endpoint: median survival time, dose: 2.7 mg/kg/injection, schedule: Q03HX024 (ip), vehicle: water",115 % of control
same,T/C,"endpoint: median survival time, dose: 2.9 mg/kg/injection, schedule: Q01DX005 (iv), vehicle: water",108 % of control
same,T/C,"endpoint: median survival time, dose: 3.2 mg/kg/injection, schedule: Q01DX009 (ip), vehicle: saline",118 % of control
same,T/C,"endpoint: median survival time, dose: 3.2 mg/kg/injection, schedule: Q01DX009 (ip), vehicle: water",105 % of control
same,T/C,"endpoint: median survival time, dose: 3.65 mg/kg/injection, schedule: Q03HX008 (ip), vehicle: water",118 % of control
same,T/C,"endpoint: median survival time, dose: 4.0 mg/kg/injection, schedule: Q01DX009 (ip), vehicle: acid diluted with saline",113 % of control and 99 % of control
same,T/C,"endpoint: median survival time, dose: 4.0 mg/kg/injection, schedule: Q01DX009 (ip), vehicle: saline with Tween-80",116 % of control
same,T/C,"endpoint: median survival time, dose: 4.35 mg/kg/injection, schedule: Q01DX005 (iv), vehicle: water",105 % of control
same,T/C,"endpoint: median survival time, dose: 4.7 mg/kg/injection, schedule: Q01DX009 (ip), vehicle: water",124 % of control
same,T/C,"endpoint: median survival time, dose: 5.0 mg/kg/injection, schedule: Q01DX009 (ip), vehicle: acid diluted with saline",113 % of control
same,T/C,"endpoint: median survival time, dose: 5.44 mg/kg/injection, schedule: Q03HX008 (ip), vehicle: water",120 % of control
same,T/C,"endpoint: median survival time, dose: 5.76 mg/kg/injection, schedule: Q01DX005 (ip), vehicle: water",117 % of control
same,T/C,"endpoint: median survival time, dose: 6.03 mg/kg/injection, schedule: Q03HX024 (ip), vehicle: water",154 % of control
same,T/C,"endpoint: median survival time, dose: 6.5 mg/kg/injection, schedule: Q01DX005 (iv), vehicle: saline with Tween-80",105 % of control
same,T/C,"endpoint: median survival time, dose: 6.5 mg/kg/injection, schedule: Q01DX005 (iv), vehicle: water",113 % of control
same,T/C,"endpoint: median survival time, dose: 7.0 mg/kg/injection, schedule: Q01DX009 (ip), vehicle: acid diluted with saline",114 % of control
same,T/C,"endpoint: median survival time, dose: 7.1 mg/kg/injection, schedule: Q01DX009 (ip), vehicle: saline with Tween-80",123 % of control
same,T/C,"endpoint: median survival time, dose: 8.0 mg/kg/injection, schedule: Q01DX009 (ip), vehicle: acid diluted with saline",118 % of control
same,T/C,"endpoint: median survival time, dose: 8.46 mg/kg/injection, schedule: Q01DX005 (ip), vehicle: saline with Tween-80",114 % of control
same,T/C,"endpoint: median survival time, dose: 8.46 mg/kg/injection, schedule: Q01DX005 (ip), vehicle: water",120 % of control
same,T/C,"endpoint: median survival time, dose: 9.0 mg/kg/injection, schedule: Q03HX024 (ip), vehicle: water",209 % of control
same,T/C,"endpoint: median survival time, dose: 9.7 mg/kg/injection, schedule: Q01DX005 (iv), vehicle: saline with Tween-80",114 % of control
same,T/C,"endpoint: median survival time, dose: 9.7 mg/kg/injection, schedule: Q01DX005 (iv), vehicle: water",120 % of control
same,T/C,"endpoint: median survival time, dose: 9.7 mg/kg/injection, schedule: Q04DX003 (ip), vehicle: water",120 % of control
same,T/C,"endpoint: median survival time, dose: 10.0 mg/kg/injection, schedule: Q01DX009 (ip), vehicle: acid diluted with saline",117 % of control
same,T/C,"endpoint: median survival time, dose: 10.7 mg/kg/injection, schedule: Q01DX009 (ip), vehicle: saline",165 % of control
same,T/C,"endpoint: median survival time, dose: 11.0 mg/kg/injection, schedule: Q01DX009 (ip), vehicle: saline with Tween-80",150 % of control and 167 % of control
same,T/C,"endpoint: median survival time, dose: 12.1 mg/kg/injection, schedule: Q03HX008 (ip), vehicle: water",174 % of control
same,T/C,"endpoint: median survival time, dose: 13.4 mg/kg/injection, schedule: Q03HX024 (ip), vehicle: water",103 % of control
same,T/C,"endpoint: median survival time, dose: 14.5 mg/kg/injection, schedule: Q04DX003 (ip), vehicle: water",120 % of control
same,T/C,"endpoint: median survival time, dose: 14.6 mg/kg/injection, schedule: Q01DX001 (iv), vehicle: water",112 % of control
same,T/C,"endpoint: median survival time, dose: 16.0 mg/kg/injection, schedule: Q01DX009 (ip), vehicle: acid diluted with saline",175 % of control and 217 % of control and 112 % of control
same,T/C,"endpoint: median survival time, dose: 16.0 mg/kg/injection, schedule: Q01DX009 (ip), vehicle: saline",206 % of control
same,T/C,"endpoint: median survival time, dose: 16.0 mg/kg/injection, schedule: Q01DX009 (ip), vehicle: water",187 % of control
same,T/C,"endpoint: median survival time, dose: 19.3 mg/kg/injection, schedule: Q01DX005 (ip), vehicle: saline with Tween-80",158 % of control
same,T/C,"endpoint: median survival time, dose: 19.3 mg/kg/injection, schedule: Q01DX005 (ip), vehicle: water",183 % of control
same,T/C,"endpoint: median survival time, dose: 21.6 mg/kg/injection, schedule: Q01DX005 (iv), vehicle: saline with Tween-80",162 % of control
same,T/C,"endpoint: median survival time, dose: 21.6 mg/kg/injection, schedule: Q01DX005 (iv), vehicle: water",182 % of control
same,T/C,"endpoint: median survival time, dose: 21.8 mg/kg/injection, schedule: Q01DX001 (iv), vehicle: water",113 % of control
same,T/C,"endpoint: median survival time, dose: 24.0 mg/kg/injection, schedule: Q01DX009 (ip), vehicle: saline with Tween-80",158 % of control and 163 % of control
same,T/C,"endpoint: median survival time, dose: 24.0 mg/kg/injection, schedule: Q01DX009 (ip), vehicle: saline",118 % of control
same,T/C,"endpoint: median survival time, dose: 24.0 mg/kg/injection, schedule: Q01DX009 (ip), vehicle: water",117 % of control
same,T/C,"endpoint: median survival time, dose: 28.8 mg/kg/injection, schedule: Q01DX001 (ip), vehicle: water",120 % of control
same,T/C,"endpoint: median survival time, dose: 28.8 mg/kg/injection, schedule: Q01DX005 (ip), vehicle: saline with Tween-80",187 % of control
same,T/C,"endpoint: median survival time, dose: 28.8 mg/kg/injection, schedule: Q01DX005 (ip), vehicle: water",195 % of control
same,T/C,"endpoint: median survival time, dose: 28.9 mg/kg/injection, schedule: Q01DX009 (oral), vehicle: water",174 % of control
same,T/C,"endpoint: median survival time, dose: 32.0 mg/kg/injection, schedule: Q01DX009 (ip), vehicle: acid diluted with saline",95 % of control
same,T/C,"endpoint: median survival time, dose: 32.0 mg/kg/injection, schedule: Q01DX009 (ip), vehicle: saline with Tween-80",90 % of control and 108 % of control
same,T/C,"endpoint: median survival time, dose: 32.2 mg/kg/injection, schedule: Q01DX005 (iv), vehicle: saline with Tween-80",96 % of control
same,T/C,"endpoint: median survival time, dose: 32.3 mg/kg/injection, schedule: Q04DX003 (ip), vehicle: water",196 % of control
same,T/C,"endpoint: median survival time, dose: 36.0 mg/kg/injection, schedule: Q01DX009 (ip), vehicle: saline",93 % of control
same,T/C,"endpoint: median survival time, dose: 43.1 mg/kg/injection, schedule: Q01DX009 (oral), vehicle: water",108 % of control
same,T/C,"endpoint: median survival time, dose: 43.2 mg/kg/injection, schedule: Q01DX005 (ip), vehicle: saline with Tween-80",95 % of control
same,T/C,"endpoint: median survival time, dose: 48.3 mg/kg/injection, schedule: Q04DX003 (ip), vehicle: water",244 % of control
same,T/C,"endpoint: median survival time, dose: 72.0 mg/kg/injection, schedule: Q04DX003 (ip), vehicle: water",108 % of control
CCN(CC)CCOc1ccc(NC(=O)c2ccccc2)cc1,T/C,"endpoint: mean survival time, dose: 6.25 mg/kg/injection, schedule: Q04DX003 (ip), vehicle: saline",101 % of control
same,T/C,"endpoint: mean survival time, dose: 12.5 mg/kg/injection, schedule: Q04DX003 (ip), vehicle: saline",101 % of control
same,T/C,"endpoint: mean survival time, dose: 25.0 mg/kg/injection, schedule: Q04DX003 (ip), vehicle: saline",104 % of control
CCOCCN=C(N)C(N)=NCCOCC,T/C,"endpoint: mean survival time, dose: 50.0 mg/kg/injection, schedule: Q04DX002 (ip), vehicle: saline with Tween-80",102 % of control
same,T/C,"endpoint: mean survival time, dose: 100.0 mg/kg/injection, schedule: Q04DX002 (ip), vehicle: saline with Tween-80",98 % of control
same,T/C,"endpoint: mean survival time, dose: 200.0 mg/kg/injection, schedule: Q04DX002 (ip), vehicle: saline with Tween-80",94 % of control
same,T/C,"endpoint: mean survival time, dose: 400.0 mg/kg/injection, schedule: Q04DX002 (ip), vehicle: saline with Tween-80",94 % of control
O=P(O)(O)CP(=O)(O)O.[NH-]CC[NH-].[NH-]CC[NH-].[Pt+2].[Pt+2],T/C,"endpoint: mean survival time, dose: 3.13 mg/kg/injection, schedule: Q04DX003 (ip), vehicle: distilled water + Tween-80",119 % of control
same,T/C,"endpoint: mean survival time, dose: 6.25 mg/kg/injection, schedule: Q04DX003 (ip), vehicle: distilled water + Tween-80",92 % of control
same,T/C,"endpoint: mean survival time, dose: 12.5 mg/kg/injection, schedule: Q04DX003 (ip), vehicle: distilled water + Tween-80",103 % of control
same,T/C,"endpoint: mean survival time, dose: 25.0 mg/kg/injection, schedule: Q04DX003 (ip), vehicle: distilled water + Tween-80",109 % of control
same,T/C,"endpoint: mean survival time, dose: 50.0 mg/kg/injection, schedule: Q04DX003 (ip), vehicle: distilled water + Tween-80",103 % of control
same,T/C,"endpoint: mean survival time, dose: 100.0 mg/kg/injection, schedule: Q04DX003 (ip), vehicle: distilled water + Tween-80",109 % of control
same,T/C,"endpoint: mean survival time, dose: 200.0 mg/kg/injection, schedule: Q04DX003 (ip), vehicle: distilled water + Tween-80",90 % of control
Brc1cscc1-c1cccc2ccccc12,T/C,"endpoint: mean survival time, dose: 12.5 mg/kg/injection, schedule: Q01DX009 (ip), vehicle: saline with Tween-80",95 % of control
same,T/C,"endpoint: mean survival time, dose: 25.0 mg/kg/injection, schedule: Q01DX009 (ip), vehicle: saline with Tween-80",95 % of control
same,T/C,"endpoint: mean survival time, dose: 50.0 mg/kg/injection, schedule: Q01DX009 (ip), vehicle: saline with Tween-80",95 % of control
